For experiment [1], the target named is T1, PAF (Canis lupus familiaris, UniProt A0A8I3NSH0).
T1 construct: followed by 2×10^7 dog platelets; from tissue; host or cells: washed platelets from citrate-treated dog blood
T1 sequence (A0A8I3NSH0 1-343): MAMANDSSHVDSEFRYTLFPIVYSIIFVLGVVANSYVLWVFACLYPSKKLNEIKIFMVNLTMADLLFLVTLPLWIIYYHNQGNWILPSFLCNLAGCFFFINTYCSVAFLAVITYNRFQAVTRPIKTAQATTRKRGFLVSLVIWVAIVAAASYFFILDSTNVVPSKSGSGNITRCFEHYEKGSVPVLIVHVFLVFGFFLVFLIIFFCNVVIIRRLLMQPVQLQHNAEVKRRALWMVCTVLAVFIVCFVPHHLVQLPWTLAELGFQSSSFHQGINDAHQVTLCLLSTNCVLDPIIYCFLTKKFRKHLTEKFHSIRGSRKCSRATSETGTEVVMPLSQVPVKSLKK
The experiment can be described thus: PAF Radioreceptor Binding Assay. Conditions: dog platelets, 3H-PAF. The procedure:
Platelet rich plasma is prepared by centrifugation of citrate-treated dog blood. Acidification to pH 6.5 with 0.15 M citric acid and centrifugation for 10 minutes at 1000 xg yields a platelet pellet which is then washed by resuspension in EDTA-Phosphate Buffered Saline (PBS) and recentrifuged. The washed platelet preparation is adjusted to 2×10^7 platelets/50 μl in 0.1% BSA-PBS. […] After mixing, incubating for 10 minutes at room temperature, and centrifuging for 1 minute in a Beckman Microfuge B (8000 xg), the pellet is removed by clipping off the tip of the tube, the platelets are solubilized with 200 μl of 50% methanol, and counted in 10 ml of Aquasol. […] Results obtained with representative compounds of the present invention in this assay are summarized hereinafter in Tables I, II and III.

Experiment [2] concerns the target T2, TXA2 synthase (Homo sapiens, UniProt P24557).
T2 construct: microsomal fractions from human platelets as enzyme source; from tissue; host or cells: microsomal fraction of human platelets
T2 sequence (P24557 1-533): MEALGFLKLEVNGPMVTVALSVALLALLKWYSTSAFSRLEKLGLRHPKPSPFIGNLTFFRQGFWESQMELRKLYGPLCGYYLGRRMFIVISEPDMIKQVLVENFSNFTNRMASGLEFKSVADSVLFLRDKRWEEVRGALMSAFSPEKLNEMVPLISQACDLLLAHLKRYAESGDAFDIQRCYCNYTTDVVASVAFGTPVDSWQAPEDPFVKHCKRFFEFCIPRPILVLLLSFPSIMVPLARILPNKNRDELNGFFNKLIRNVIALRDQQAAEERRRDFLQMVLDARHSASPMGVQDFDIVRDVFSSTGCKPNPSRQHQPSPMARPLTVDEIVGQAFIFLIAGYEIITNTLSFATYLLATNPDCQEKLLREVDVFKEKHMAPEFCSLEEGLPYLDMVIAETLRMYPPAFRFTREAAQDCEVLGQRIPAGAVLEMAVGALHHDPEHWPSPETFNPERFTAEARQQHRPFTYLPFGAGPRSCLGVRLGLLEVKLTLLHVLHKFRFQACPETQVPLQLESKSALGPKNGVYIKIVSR
The experiment in a line: Thromboxane Synthase Inhibition, In Vitro. Type of experiment: biochemical. Conditions: at 1 μM (value in parentheses), human platelet microsomes. The protocol:
TXA2 synthase activity is measured by following the conversion of ^14 C-prostaglandin endoperoxide (PGH2) to ^14 C-thromboxane A2 (TXA2) using microsomal fractions from human platelets as enzyme source. In the aqueous incubation medium, the TXA2 decomposes rapidly into TXB2. The amount of TXA2 synthase is adjusted so that under the conditions of the assay approximately 80-90% of the substrate, PGH2, is converted to product in control tubes. To prepare ^14 C-PGH2, ^14 C-AA (50-60 mCi/mmole; Rose Chem.) is incubated with sheep seminal vesicular gland microsomes for 1.5 minutes at 37° C. and then the ^14 C-PGH2 is extracted with diethylether, purified on columns of Sephadex LH-20 or silicic acid, and stored in acetone at -70° C. Incubations are done as follows. Sufficient ^14 C-PGH2 yield a final substrate concentration of 10 μM (~30,000 cpm) is added to the incubation tubes and then the acetone is removed under nitrogen. […] The tubes are incubated at 22° C. for 2 minutes, the reaction is stopped and then the radioactive products and the unconverted PGH2 are extracted and analyzed by thin layer chromatography. […] The amount of ^14 C-PGH2 converted to products was used as a measure of TXA2 synthase activity. Inhibitors were tested initially at a final concentration of 100 μM. Results obtained with representative compounds of the present invention in this assay are summarized hereafter in Table I, II and III.

Experiment [3] relates to LTD4. The experiment in a line: Leukotriene D4 (LTD4) Induced Arrhythmia Test. Type of experiment: in vivo, guinea pig (Hartley). To be noted: 10 mg/kg i.v. 5 min. before LTD4; conscious guinea pigs. The procedure:
Male Hartley guinea pigs are anesthetized with sodium pentobarbital and prepared for monitoring direct blood pressure and injecting drugs intravenously by catheterizing the right carotid artery and right jugular vein. Blood pressure, heart rate, and Lead II ECG are monitored in the conscious animal 24 hours later.
Intravenous administration of LTD4 (2.5 pg/kg) is associated with an increase in blood pressure lasting approximately 1-2 minutes followed by a decrease lasting approximately 5-15 minutes (FIG. 3). Abnormal beats consisting of premature ventricular contractions, ST elevation or depression, atrioventricular conduction block, or dissociated p waves begin during the rise in blood pressure; the peak effect occurs approximately 40 seconds after LTD4. The percent of abnormal beats was quantitated by determining the number present during the first 2 minutes after injection and calculating the percent increase above the control level. During the hypotensive response, the animal usually collapses during the 2nd or 3rd minute after LTD4.

[4] abbreviates: Table II, read-out: TXA2 Synth. Inhib. % at (1μM).
The mark [5] stands for this setting: Table I, read-out: TXA2 Syn. Inhib. (1μM).
[6] abbreviates: Table III, read-out: TXA2 Synth. Inhib. % at (1 μM).

These results are taken from US4672066A, “Derivatives of 4-acetyl-3-hydroxy-2-alkyl-phenoxycarboxylic acids” (Hoffmann-La Roche Inc., priority 1985, dated 1987).

Read-outs that look alike come from different tables or passages of the source.

The compound `CCCc1c(OCCCCCC(=O)NCCCCn2ccnc2)ccc(C(C)=O)c1O` came in with an IC50 in experiment [1] (Table II) of 1000 nM. Further, the inhibition at 1 µM in experiment [2] (setting [4]) is 87%.
With `CCCc1c(OCCCCCC(=O)NCCCCc2ccccn2)ccc(C(C)=O)c1O`, the IC50 in experiment [1] (Table II) is 1000 nM. For the same compound, the inhibition at 1 µM in experiment [2] (setting [4]) stood at 0%.
For the compound `CCCc1c(OCCCCCC(=O)NCCCCOc2cccnc2)ccc(C(C)=O)c1O`, the IC50 in experiment [1] (Table II) was found to be 1000 nM. In addition, the inhibition at 1 µM in experiment [2] (setting [4]) amounted to 93%.
In turn, `CCCc1c(OCCCCCC(=O)NCCc2ccncc2)ccc(C(C)=O)c1O` yielded an IC50 in experiment [1] (Table II) of 1750 nM. Also, in experiment [2] (setting [4]), the inhibition at 1 µM came to 0%.
In experiment [1] (Table I), `CCCc1c(OCCCCC(=O)NCCCCc2cccnc2)ccc(C(C)=O)c1O` [Example 1] showed an IC50 of 1000 nM.
Same read-out and setting: under `CCCc1c(OCCCCCCCC(=O)NCCCCc2cccnc2)ccc(C(C)=O)c1O` [Example 2, 8-(4-Acetyl-3-hydroxy-2-propylphenoxy)-N-[4-(3-pyridinyl)butyl]octanamide] stands 1000 nM.
The compound `CCCc1c(OCCCCCCC(=O)NCCCCc2cccnc2)ccc(C(C)=O)c1O` [Example 3, 7-(4-Acetyl-3-hydroxy-2-propylphenoxy)-N-[4-(3-pyridinyl)butyl]heptanamide] showed an IC50 in experiment [1] (Table I) of 1000 nM. Further, the inhibition at 1 µM in experiment [2] (setting [5]) was 93%.
For the compound `CCCc1c(OCCC(=O)NCCCCc2cccnc2)ccc(C(C)=O)c1O` [Example 6, 3-(4-Acetyl-3-hydroxy-2-propylphenoxy)-N-[4-(3-pyridinyl)butyl]propanamide], the IC50 in experiment [1] (Table I) came to 1000 nM. Besides, the inhibition at 1 µM in experiment [2] (setting [5]) came out at 77%.
Compound `CCCc1c(OCC(=O)NCCCCc2cccnc2)ccc(C(C)=O)c1O` [Example 7, (4-Acetyl-3-hydroxy-2-propylphenoxy)-N-[4-(3-pyridinyl)butyl]acetamide] came in with an IC50 in experiment [1] (Table I) of 1500 nM. For the same compound, the inhibition at 1 µM in experiment [2] (setting [5]) came to 81%.
Taken in the same sequence, the figures for `CCCc1c(OCCCCCC(=O)NCCCCCCc2cccnc2)ccc(C(C)=O)c1O` [Example 8, 6-(4-Acetyl-3-hydroxy-2-propylphenoxy)-N-[6-(3-pyridinyl)hexyl]hexanamide] were 1000 nM and 90%.
Taken in the same sequence, the figures for `CCCc1c(OCCCCCC(=O)NCCCc2cccnc2)ccc(C(C)=O)c1O` [Example 9, 6-(4-Acetyl-3-hydroxy-2-propylphenoxy)-N-[3-(3-pyridinyl)propyl]hexanamide] were 2000 nM and 78%.
Consider `CCCc1c(OCCCCCC(=O)NCCc2cccnc2)ccc(C(C)=O)c1O` [Example 10, 6-(4-Acetyl-3-hydroxy-2-propylphenoxy)-N-[2-(3-pyridinyl)ethyl]hexanamide], for which the IC50 in experiment [1] (Table I) came out at 500 nM. Besides, the inhibition at 1 µM in experiment [2] (setting [5]) amounted to 35%.
In experiment [1] (Table I), `CCCc1c(OCCCC(=O)NCCCCCCc2cccnc2)ccc(C(C)=O)c1O` [Example 11, 4-(4-Acetyl-3-hydroxy-2-propylphenoxy)-N-[6-(3-pyridinyl)hexyl]butanamide] displayed an IC50 of 1000 nM. The inhibition at 1 µM in experiment [2] (setting [5]) was determined as 83%.
Taken in the same sequence, the figures for `CCCc1c(OCCCC(=O)NCCCc2cccnc2)ccc(C(C)=O)c1O` [Example 12, 4-(4-Acetyl-3-hydroxy-2-propylphenoxy)-N-[3-(3-pyridinyl)propyl]butanamide] were 1500 nM and 51%.
Regarding `CCCc1c(OCCCC(=O)NCCc2cccnc2)ccc(C(C)=O)c1O` [Example 13, 4-(4-Acetyl-3-hydroxy-2-propylphenoxy)-N-[2-(3-pyridinyl)ethyl]butanamide], in experiment [1] (Table I), the IC50 worked out at 400 nM. The inhibition at 1 µM in experiment [2] (setting [5]) was determined as 8%.
Consider `CCCc1c(OCCC(C)C(=O)NCCCCc2cccnc2)ccc(C(C)=O)c1O` (stereo not drawn) [Example 22, 4-(4-Acetyl-3-hydroxy-2-propylphenoxy)-2-methyl-N-[4-(3-pyridinyl)butyl]butanamide], for which, in experiment [1] (Table III), the IC50 was found to be 1000 nM. Further, in experiment [2] (setting [6]), the inhibition at 1 µM was 70%.
`CCCc1c(OCC(C)CC(=O)NCCCCc2cccnc2)ccc(C(C)=O)c1O` (stereo not drawn) [Example 23, 4-(4-Acetyl-3-hydroxy-2-propylphenoxy)-3-methyl-N-[4-(3-pyridinyl)butyl]butanamide] gave an IC50 in experiment [1] (Table III) of 200 nM. Besides, the inhibition at 1 µM in experiment [2] (setting [6]) came to 77%.
In experiment [1] (Table III), `CCCc1c(OCCC(C)(C)C(=O)NCCCCc2cccnc2)ccc(C(C)=O)c1O` [Example 24, 4-(4-Acetyl-3-hydroxy-2-propylphenoxy)-2,2-dimethyl-N-[4-(3-pyridinyl)butyl]butanamide] had an IC50 of 1000 nM. Also, the inhibition at 1 µM in experiment [2] (setting [6]) was found to be 55%.
Take `CCCc1c(OCC(C)CC(=O)NC(C)CCCc2cccnc2)ccc(C(C)=O)c1O` (stereo not drawn) [Example 26, 4-(4-Acetyl-3-hydroxy-2-propylphenoxy)-3-methyl-N-[1-methyl-4-(3-pyridinyl)butyl]-butanamide]: in experiment [1] (Table III), the IC50 turned out to be 1000 nM. The inhibition at 1 µM in experiment [2] (setting [6]) was 78%.
`CCCc1c(OCCCC(=O)NC(C)CCCc2cccnc2)ccc(C(C)=O)c1O` (stereo not drawn) [Example 27, 4-(4-Acetyl-3-hydroxy-2-propylphenoxy)-N-[1-methyl-4-(3-pyridinyl)butyl]butanamide]: the IC50 in experiment [1] (Table III) is 300 nM. Further, in experiment [2] (setting [6]), the inhibition at 1 µM was 77%.
The compound `CCCc1c(OCCCNC(=O)NCCCCc2cccnc2)ccc(C(C)=O)c1O` [Example 30, N-[3-(4-acetyl-3-hydroxy-2-propylphenoxy)-propyl]-N'-[4-(3-pyridinyl)butyl]urea] returned an IC50 in experiment [1] (Table III) of 700 nM. Moreover, the inhibition at 1 µM in experiment [2] (setting [6]) was found to be 93%.
The compound `CCCc1c(OCCCC#CC(=O)NCCCCc2cccnc2)ccc(C(C)=O)c1O` [drawing 36] gave an IC50 in experiment [1] (Table II) of 500 nM. Moreover, the inhibition at 1 µM in experiment [2] (setting [4]) came out at 88%.
On to `CCCc1c(OCCCCCC(=O)NCCCCc2cccnc2)ccc(C(C)=O)c1O` [drawing 39], for which, in experiment [3], the “Arrhy's (R/T)” value is 0/5, the “decrease in blood pressure (.dwnarw.XABP)” value was -16 ± 6 Δmm Hg and the “increase in blood pressure (.uparw.XABP)” value is on record as 6 ± 3 Δmm Hg.
For `CCCc1c(OCCCC(=O)NCCCCc2cccnc2)ccc(C(C)=O)c1O` [drawing 40], in that order: 0/3, -26 ± 8 Δmm Hg and 6 ± 6 Δmm Hg.

What is called IC50 is the midpoint of a concentration-inhibition curve.
